Starred links: 1 amine or outer side, 2 acyl side, 3 side chain; linkers in the order of their positions; H or OH if unused. Non-standard residues stand in square brackets, D forms with d. Residues, ends and D or L forms follow the SMILES beside them. Groups on a side chain read outwards from the residue. *: point of attachment. C20 diacid = O=C(O)CCCCCCCCCCCCCCCCCCC(=O)*; γGlu = O=C(O)[C@H](CCC(=O)[*:2])N[*:1]; NMeY = CN[C@@H](Cc1ccc(O)cc1)C(=O)O
How the values were obtained:
Experiment in all cases: NPY receptor functional assay (cAMP, HEK-CNG cells, ACTOne membrane potential dye)
Format in all cases: cell-based
human Y2 receptor = biological target: T1, human Y2 receptor (Homo sapiens, UniProt P49146); settings: NPY2R pEC50, HEK-CNG cells; standard PYY(3-36); species (human or rat) not given
T1 sequence (P49146 1-381): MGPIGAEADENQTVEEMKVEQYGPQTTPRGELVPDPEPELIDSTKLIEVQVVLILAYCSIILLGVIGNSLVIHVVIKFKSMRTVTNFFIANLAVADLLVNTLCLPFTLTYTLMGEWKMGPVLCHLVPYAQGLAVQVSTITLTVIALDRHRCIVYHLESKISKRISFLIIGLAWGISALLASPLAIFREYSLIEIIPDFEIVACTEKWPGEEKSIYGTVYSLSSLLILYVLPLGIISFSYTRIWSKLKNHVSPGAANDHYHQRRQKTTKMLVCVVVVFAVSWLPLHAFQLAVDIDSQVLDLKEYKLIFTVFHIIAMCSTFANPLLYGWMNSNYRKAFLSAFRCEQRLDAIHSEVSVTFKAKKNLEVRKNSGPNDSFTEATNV
How it was run: (§1)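 HEK-CNG cells stably expressing each human receptor; peptides added in triplicate for 50 minutes at room temperature, with agonism read as decreased isoproterenol-induced membrane potential dye signal (final/initial read).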

human Y4 receptor = human Y4 receptor (Homo sapiens, UniProt P50391); settings: standard PP, species (human or rat) not given
Chain of human Y4 receptor (P50391 whole entry): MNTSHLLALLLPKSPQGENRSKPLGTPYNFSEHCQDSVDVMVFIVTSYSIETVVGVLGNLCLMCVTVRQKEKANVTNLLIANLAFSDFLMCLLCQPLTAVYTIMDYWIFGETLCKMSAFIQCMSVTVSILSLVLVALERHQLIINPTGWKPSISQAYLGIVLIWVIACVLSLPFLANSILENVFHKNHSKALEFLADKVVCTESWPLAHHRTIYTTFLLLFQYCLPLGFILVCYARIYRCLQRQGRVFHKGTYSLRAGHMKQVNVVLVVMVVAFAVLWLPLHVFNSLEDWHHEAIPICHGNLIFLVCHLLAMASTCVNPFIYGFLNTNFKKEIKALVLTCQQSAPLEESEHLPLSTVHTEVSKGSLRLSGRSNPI
How it was run: as §1

human Y5 receptor = biological target: T2, human Y5 receptor (Homo sapiens, UniProt Q15761); settings: NPY5R pEC50, HEK-CNG cells; standard NPY; species (human or rat) not given
T2 sequence (Q15761 1-445): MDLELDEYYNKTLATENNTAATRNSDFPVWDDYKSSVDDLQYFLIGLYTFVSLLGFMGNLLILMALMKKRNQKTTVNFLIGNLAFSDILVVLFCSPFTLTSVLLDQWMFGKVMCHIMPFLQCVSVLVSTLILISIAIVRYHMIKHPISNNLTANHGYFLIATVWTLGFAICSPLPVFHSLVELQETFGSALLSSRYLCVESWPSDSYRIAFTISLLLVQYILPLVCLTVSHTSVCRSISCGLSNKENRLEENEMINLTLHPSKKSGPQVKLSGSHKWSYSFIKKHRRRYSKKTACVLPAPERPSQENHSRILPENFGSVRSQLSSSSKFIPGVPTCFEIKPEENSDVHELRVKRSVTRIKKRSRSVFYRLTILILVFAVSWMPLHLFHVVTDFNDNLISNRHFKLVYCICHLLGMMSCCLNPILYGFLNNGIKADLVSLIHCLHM
How it was run: as §1

For `CC(C)C[C@H](NC(=O)[C@H](Cc1ccc(O)cc1)NC(=O)[C@H](Cc1c[nH]cn1)NC(=O)[C@H](CCCNC(=N)N)NC(=O)[C@H](C)NC(=O)[C@H](CC(=O)O)NC(=O)[C@H](C)NC(=O)[C@H](Cc1ccc(O)cc1)NC(=O)[C@H](Cc1ccc(O)cc1)NC(=O)[C@H](CCCNC(=N)N)NC(=O)[C@H](CC(N)=O)NC(=O)[C@H](Cc1c[nH]c2ccccc12)NC(=O)[C@H](CCC(=O)O)NC(=O)[C@H](CCC(=O)O)NC(=O)[C@@H]1CCCN1C(=O)[C@H](CO)NC(=O)[C@H](C)NC(=O)[C@H](CC(=O)O)NC(=O)[C@H](CCCCN)NC(=O)CNC(=O)[C@@H]1CCCN1C(=O)[C@H](C)NC(=O)[C@H](CCC(=O)O)NC(=O)[C@@H]1CCCN1C(=O)[C@H](CCCCN)NC(=O)[C@@H]1CCCN1C(=O)[C@@H](N)CCCCNC(=O)CC[C@H](NC(=O)CC[C@H](NC(=O)CCCCCCCCCCCCCCCCCCC(=O)O)C(=O)O)C(=O)O)C(=O)N[C@@H](CC(N)=O)C(=O)N[C@@H](Cc1c[nH]c2ccccc12)C(=O)N[C@@H](CC(C)C)C(=O)N[C@H](C(=O)N[C@@H](CCCNC(=N)N)C(=O)N[C@@H](CCC(N)=O)C(=O)N[C@@H](CCCNC(=N)N)C(=O)N(C)[C@@H](Cc1ccc(O)cc1)C(N)=O)[C@@H](C)O` [Compound A4] (H-K([γGlu-γGlu-C20 diacid])PKPEAPGKDASPEEWNRYYADARHYLNWLTRQR[NMeY]-NH2; N-terminus assumed), the EC50 (human Y2 receptor) was 0.002 µM, the “NPY4R pEC50” value (human Y4 receptor) was “inactive” and the EC50 (human Y5 receptor) was 0.0501 µM.

With `CC(C)C[C@H](NC(=O)[C@H](Cc1ccc(O)cc1)NC(=O)[C@H](Cc1c[nH]cn1)NC(=O)[C@H](CCCNC(=N)N)NC(=O)[C@H](C)NC(=O)[C@H](CC(=O)O)NC(=O)[C@H](C)NC(=O)[C@H](Cc1ccc(O)cc1)NC(=O)[C@H](Cc1ccc(O)cc1)NC(=O)[C@H](CCCNC(=N)N)NC(=O)[C@H](CC(N)=O)NC(=O)[C@H](Cc1c[nH]c2ccccc12)NC(=O)[C@H](CCC(=O)O)NC(=O)[C@H](CCC(=O)O)NC(=O)[C@@H]1CCCN1C(=O)[C@H](CO)NC(=O)[C@H](C)NC(=O)[C@H](CC(=O)O)NC(=O)[C@H](CCCCN)NC(=O)CNC(=O)[C@@H]1CCCN1C(=O)[C@H](C)NC(=O)[C@H](CCC(=O)O)NC(=O)[C@@H]1CCCN1C(=O)[C@H](CCCCNC(=O)CC[C@H](NC(=O)CC[C@H](NC(=O)CCCCCCCCCCCCCCCCCCC(=O)O)C(=O)O)C(=O)O)NC(=O)[C@@H]1CCCN1)C(=O)N[C@@H](CC(N)=O)C(=O)N[C@@H](Cc1c[nH]c2ccccc12)C(=O)N[C@@H](CC(C)C)C(=O)N[C@H](C(=O)N[C@@H](CCCNC(=N)N)C(=O)N[C@@H](CCC(N)=O)C(=O)N[C@@H](CCCNC(=N)N)C(=O)N(C)[C@@H](Cc1ccc(O)cc1)C(N)=O)[C@@H](C)O` [Compound A5] the EC50 (human Y2 receptor) was 0.02 µM, the “NPY4R pEC50” value (human Y4 receptor) was “inactive” and the EC50 (human Y5 receptor) was 0.01 µM.

`CC(C)C[C@H](NC(=O)[C@H](Cc1ccc(O)cc1)NC(=O)[C@H](Cc1c[nH]cn1)NC(=O)[C@H](CCCNC(=N)N)NC(=O)[C@H](C)NC(=O)[C@H](CC(=O)O)NC(=O)[C@H](C)NC(=O)[C@H](Cc1ccc(O)cc1)NC(=O)[C@H](Cc1ccc(O)cc1)NC(=O)[C@H](CCCNC(=N)N)NC(=O)[C@H](CC(N)=O)NC(=O)[C@H](Cc1c[nH]c2ccccc12)NC(=O)[C@H](CCC(=O)O)NC(=O)[C@H](CCC(=O)O)NC(=O)[C@@H]1CCCN1C(=O)[C@H](CO)NC(=O)[C@H](C)NC(=O)[C@H](CC(=O)O)NC(=O)[C@H](CCCCN)NC(=O)CNC(=O)[C@@H]1CCCN1C(=O)[C@H](C)NC(=O)[C@H](CCCCNC(=O)CC[C@H](NC(=O)CC[C@H](NC(=O)CCCCCCCCCCCCCCCCCCC(=O)O)C(=O)O)C(=O)O)NC(=O)[C@@H]1CCCN1C(=O)[C@H](CCCCN)NC(=O)[C@@H]1CCCN1)C(=O)N[C@@H](CC(N)=O)C(=O)N[C@@H](Cc1c[nH]c2ccccc12)C(=O)N[C@@H](CC(C)C)C(=O)N[C@H](C(=O)N[C@@H](CCCNC(=N)N)C(=O)N[C@@H](CCC(N)=O)C(=O)N[C@@H](CCCNC(=N)N)C(=O)N(C)[C@@H](Cc1ccc(O)cc1)C(N)=O)[C@@H](C)O` [Compound A6] was tested, and the EC50 (human Y2 receptor) was 0.00126 µM, the “NPY4R pEC50” value (human Y4 receptor) was “inactive” and the EC50 (human Y5 receptor) was 0.02 µM.

For `CC(C)C[C@H](NC(=O)[C@H](Cc1ccc(O)cc1)NC(=O)[C@H](Cc1c[nH]cn1)NC(=O)[C@H](CCCNC(=N)N)NC(=O)[C@H](C)NC(=O)[C@H](CC(=O)O)NC(=O)[C@H](C)NC(=O)[C@H](Cc1ccc(O)cc1)NC(=O)[C@H](Cc1ccc(O)cc1)NC(=O)[C@H](CCCNC(=N)N)NC(=O)[C@H](CC(N)=O)NC(=O)[C@H](Cc1c[nH]c2ccccc12)NC(=O)[C@H](CCC(=O)O)NC(=O)[C@H](CCCCNC(=O)CC[C@H](NC(=O)CC[C@H](NC(=O)CCCCCCCCCCCCCCCCCCC(=O)O)C(=O)O)C(=O)O)NC(=O)[C@@H]1CCCN1C(=O)[C@H](CO)NC(=O)[C@H](C)NC(=O)[C@H](CC(=O)O)NC(=O)[C@H](CCCCN)NC(=O)CNC(=O)[C@@H]1CCCN1C(=O)[C@H](C)NC(=O)[C@H](CCC(=O)O)NC(=O)[C@@H]1CCCN1C(=O)[C@H](CCCCN)NC(=O)[C@@H]1CCCN1)C(=O)N[C@@H](CC(N)=O)C(=O)N[C@@H](Cc1c[nH]c2ccccc12)C(=O)N[C@@H](CC(C)C)C(=O)N[C@H](C(=O)N[C@@H](CCCNC(=N)N)C(=O)N[C@@H](CCC(N)=O)C(=O)N[C@@H](CCCNC(=N)N)C(=O)N(C)[C@@H](Cc1ccc(O)cc1)C(N)=O)[C@@H](C)O` [Compound A8], the EC50 (human Y2 receptor) was 0.000251 µM, the “NPY4R pEC50” value (human Y4 receptor) was “inactive” and the EC50 (human Y5 receptor) was 0.0794 µM.

For `CC(C)C[C@H](NC(=O)[C@H](CC(=O)O)NC(=O)[C@H](C)NC(=O)[C@H](Cc1ccc(O)cc1)NC(=O)[C@H](Cc1ccc(O)cc1)NC(=O)[C@H](CCCNC(=N)N)NC(=O)[C@H](CC(N)=O)NC(=O)[C@H](Cc1c[nH]c2ccccc12)NC(=O)[C@H](CCC(=O)O)NC(=O)[C@H](CCC(=O)O)NC(=O)[C@@H]1CCCN1C(=O)[C@H](CO)NC(=O)[C@H](C)NC(=O)[C@H](CC(=O)O)NC(=O)[C@H](CCCCN)NC(=O)CNC(=O)[C@@H]1CCCN1C(=O)[C@H](C)NC(=O)[C@H](CCC(=O)O)NC(=O)[C@@H]1CCCN1C(=O)[C@H](CCCCN)NC(=O)[C@@H]1CCCN1)C(=O)N[C@@H](CCCNC(=N)N)C(=O)N[C@@H](Cc1c[nH]cn1)C(=O)N[C@@H](CCCCNC(=O)CC[C@H](NC(=O)CC[C@H](NC(=O)CCCCCCCCCCCCCCCCCCC(=O)O)C(=O)O)C(=O)O)C(=O)N[C@@H](CC(C)C)C(=O)N[C@@H](CC(N)=O)C(=O)N[C@@H](Cc1c[nH]c2ccccc12)C(=O)N[C@@H](CC(C)C)C(=O)N[C@H](C(=O)N[C@@H](CCCNC(=N)N)C(=O)N[C@@H](CCC(N)=O)C(=O)N[C@@H](CCCNC(=N)N)C(=O)N[C@@H](Cc1ccccc1)C(N)=O)[C@@H](C)O` [Compound A52], the EC50 (human Y2 receptor) was 0.00398 µM, the “NPY4R pEC50” value (human Y4 receptor) was “inactive” and the EC50 (human Y5 receptor) was 0.01 µM.

For `CC(C)C[C@H](NC(=O)[C@H](CC(=O)O)NC(=O)[C@H](C)NC(=O)[C@H](Cc1ccc(O)cc1)NC(=O)[C@H](Cc1ccc(O)cc1)NC(=O)[C@H](CCCNC(=N)N)NC(=O)[C@H](CC(N)=O)NC(=O)[C@H](Cc1c[nH]c2ccccc12)NC(=O)[C@H](CCC(=O)O)NC(=O)[C@H](CCC(=O)O)NC(=O)[C@@H]1CCCN1C(=O)[C@H](CO)NC(=O)[C@H](C)NC(=O)[C@H](CC(=O)O)NC(=O)[C@H](CCCCN)NC(=O)CNC(=O)[C@@H]1CCCN1C(=O)[C@H](C)NC(=O)[C@H](CCC(=O)O)NC(=O)[C@@H]1CCCN1C(=O)[C@H](CCCCN)NC(=O)[C@@H]1CCCN1)C(=O)N[C@@H](CCCCNC(=O)CC[C@H](NC(=O)CC[C@H](NC(=O)CCCCCCCCCCCCCCCCCCC(=O)O)C(=O)O)C(=O)O)C(=O)N[C@@H](Cc1c[nH]cn1)C(=O)N[C@@H](Cc1ccc(O)cc1)C(=O)N[C@@H](CC(C)C)C(=O)N[C@@H](CC(N)=O)C(=O)N[C@@H](Cc1c[nH]c2ccccc12)C(=O)N[C@@H](CC(C)C)C(=O)N[C@H](C(=O)N[C@@H](CCCNC(=N)N)C(=O)N[C@@H](CCC(N)=O)C(=O)N[C@@H](CCCNC(=N)N)C(=O)N[C@@H](Cc1ccccc1)C(N)=O)[C@@H](C)O` [Compound A53], the EC50 (human Y2 receptor) was 0.002 µM, the “NPY4R pEC50” value (human Y4 receptor) was “inactive” and the EC50 (human Y5 receptor) was 0.0501 µM.
